Patent US20100029615A1, “BENZIMIDAZOLE DERIVATIVES” (priority 2006, published 2010)
Structures can show the parent of a compound that is named as a salt.

Biological target: T1, SMO (Mus musculus, UniProt P56726)
T1 construct: endogenous in cells; host or cells: C3H10T1/2 (ATCC #CCL-226)
Test: Smoothened (SMO)/Sonic Hedgehog (SHh) Transient Transcriptional Activation Assay (Gli-luciferase reporter in C3H10T1/2 cells)
Format: cell-based, murine
Settings: 2 μM test compound, SHh 250 ng/ml, 20 hrs
Procedure, shortened: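 C3H10T1/2 cells transiently transfected with a 10× murine Gli-responsive firefly luciferase reporter plus pEGFP, serum-starved 20 h in 0.5% calf serum, then treated with compounds (2 uM–2 nM final) and 250 ng/ml recombinant human SHh for 20 h at 37 °C. Read-out: Dual-Glo luminescence.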

T1 sequence (P56726 33-793): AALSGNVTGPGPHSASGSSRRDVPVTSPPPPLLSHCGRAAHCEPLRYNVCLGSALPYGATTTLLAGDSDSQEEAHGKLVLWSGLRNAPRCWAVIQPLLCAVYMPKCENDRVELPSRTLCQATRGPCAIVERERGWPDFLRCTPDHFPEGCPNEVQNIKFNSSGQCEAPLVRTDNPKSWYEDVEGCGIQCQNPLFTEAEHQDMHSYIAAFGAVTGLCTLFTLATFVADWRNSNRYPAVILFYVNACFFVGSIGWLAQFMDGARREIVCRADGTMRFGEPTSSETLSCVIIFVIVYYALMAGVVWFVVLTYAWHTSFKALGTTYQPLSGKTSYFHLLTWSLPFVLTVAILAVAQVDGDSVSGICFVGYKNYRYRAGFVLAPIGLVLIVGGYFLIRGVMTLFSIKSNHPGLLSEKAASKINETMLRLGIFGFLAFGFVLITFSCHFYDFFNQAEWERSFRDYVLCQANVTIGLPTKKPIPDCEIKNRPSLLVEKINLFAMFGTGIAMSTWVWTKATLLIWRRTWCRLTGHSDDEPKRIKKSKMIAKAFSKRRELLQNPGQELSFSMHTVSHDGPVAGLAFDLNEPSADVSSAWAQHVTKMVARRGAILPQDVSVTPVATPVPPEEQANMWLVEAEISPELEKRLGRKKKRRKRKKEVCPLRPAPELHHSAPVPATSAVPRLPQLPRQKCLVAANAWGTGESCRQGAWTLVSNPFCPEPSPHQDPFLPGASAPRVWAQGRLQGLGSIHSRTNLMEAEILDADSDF

SMO CELL % INHIBITION @ 2 μM [%]	Compound
99.22	Cl.O=C(NC12CCCC(c3nc4cc(C(F)(F)F)ccc4[nH]3)(C1)C2)c1ccc2c(c1)OCCO2 [Example 258, N-{5-[5-(trifluoromethyl)-1H-benzimidazol-2-yl]bicyclo[3.1.1]hept-1-yl}-2,3-dihydro-1,4-benzodioxine-6-carboxamide HCL]

Same assay, conditions: 2 μM test compound, SHh 250 ng/ml, 20 hrs, HCl, 2 µM

SMO CELL % INHIBITION @ 2 μM [%]	Compound
101.34	COc1cc(OC)cc(C(=O)NC23CCCC(c4nc5cc(C(F)(F)F)ccc5[nH]4)(C2)C3)c1 [Example 260, 3,5-dimethoxy-N-{5-[5-(trifluoromethyl)-1H-benzimidazol-2-yl]bicyclo[3.1.1]hept-1-yl}benzamide HCl]
89	N#Cc1ccc(NC(=O)NC23CCCC(c4nc5cc(C(F)(F)F)ccc5[nH]4)(C2)C3)cc1 [Example 262, 1-(4-cyanophenyl)-3-{5-[5-(trifluoromethyl)-1H-benzimidazol-2-yl]bicyclo[3.1.1]hept-1-yl}urea HCl]
94.31	O=C(NC12CCCC(c3nc4cc(C(F)(F)F)ccc4[nH]3)(C1)C2)c1cc2c(cn1)OCCO2 [Example 264, N-{5-[5-(trifluoromethyl)-1H-benzimidazol-2-yl]bicyclo[3.1.1]hept-1-yl}-2,3-dihydro[1,4]di-oxino[2,3-c]pyridine-7-carboxamide HCl]
102.05	O=C(N[C@@H]1CCC[C@H](c2nc3ccccc3[nH]2)C1)c1ccc2c(c1)CCCO2 [Example 266, N-[(1R,3S)-3-(1H-benzimidazol-2-yl)cyclohexyl] chromane-6-carboxamide HCl]

Same assay, conditions: C3H 10T1/2, 2 μM test compound, SHh 250 ng/ml, 20 hrs, read-out: SMO CELL % INHIBITION @ 2 μM

inhibition at 2 µM [%]	Compound
46	COc1cc(OC)cc(C(=O)N[C@H]2CCC[C@H](c3nc4ccccc4[nH]3)C2)c1 [Example 252, N-(3-(1H-benzo[d]imidaz-ol-2-yl)cyclohexyl)-3,5-dimethoxybenz-amide HCl]
100	O=C(N[C@@H]1CCC[C@H](c2nc3ccccc3[nH]2)C1)c1cc2c(cn1)OCCO2 [Example 253, N-((1R,3S)-3-(1H-benzo[d]imidaz-ol-2-yl)cyclohexyl)-2,3-dihydro-[1,4]dioxino[2,3-c]pyridine-7-carboxamide]
91	COc1ccc2[nH]c([C@H]3CCC[C@H](NC(=O)c4ccc5c(c4)OCCO5)C3)nc2c1 [Example 254, N-(3-(5-methoxy-1H-benzo[d]imidaz-ol-2-yl)cyclohexyl)-2,3-dihydrobenzo[b] [1,4]dioxine-6-carboxamide HCl]
101	O=C(Nc1ccc(F)c(C(F)(F)F)c1)NC12CCCC(c3nc4ccccc4[nH]3)(C1)C2 [Example 255, 1-(5-(1H-benzo[d]imidaz-ol-2-yl)bicyclo[3.1.1]heptan-1-yl)-3-(4-fluoro-3-(trifluoromethyl)phenyl)urea HCL]
94	N#Cc1ccc(NC(=O)NC23CCCC(c4nc5ccccc5[nH]4)(C2)C3)cc1 [Example 256, 1-(5-(1H-benzo[d]imidaz-ol-2-yl)bicyclo[3.1.1]heptan-1-yl)-3-(4-cyanophenyl)-urea HCl]
107	O=C(NC12CCCC(c3nc4cc(C(F)(F)F)ccc4[nH]3)(C1)C2)c1ccc2c(c1)OCCO2 [Example 257, N-{5-[5-(trifluoromethyl)-1H-benzimidazol-2-yl]bicyclo[3.1.1]hept-1-yl}-2,3-dihydro-1,4-benzodioxine-6-carboxamide]
95.5	COc1cc(OC)cc(C(=O)NC23CCCC(c4nc5cc(C(F)(F)F)ccc5[nH]4)(C2)C3)c1 [Example 259, 3,5-dimethoxy-N-{5-[5-(trifluoromethyl)-1H-benzimidazol-2-yl)bicyclo[3.1.1]hept-1-yl}benzamide]
78.8	N#Cc1ccc(NC(=O)NC23CCCC(c4nc5cc(C(F)(F)F)ccc5[nH]4)(C2)C3)cc1 [Example 261, 1-(4-cyanophenyl)-3-{5-[5-(trifluoromethyl)-1H-benzimidazol-2-yl]bicyclo[3.1.1]hept-1-yl}urea]
91.4	O=C(NC12CCCC(c3nc4cc(C(F)(F)F)ccc4[nH]3)(C1)C2)c1cc2c(cn1)OCCO2 [Example 263, N-{5-[5-(trifluoromethyl)-1H-benzimidazol-2-yl]bicyclo[3.1.1]hept-1-yl}-2,3-dihydro[1,4]di-oxino[2,3-c]pyridine-7-carboxamide]
103	O=C(N[C@@H]1CCC[C@H](c2nc3ccccc3[nH]2)C1)c1ccc2c(c1)CCCO2 [Example 265, N-[(1R,3S)-3-(1H-benzimidazol-2-yl)cyclohexyl] chromane-6-carboxamide]
103	O=C(N[C@@H]1CCC[C@H](c2nc3ccccc3[nH]2)C1)c1ccc2c(c1)CN(CC1CC1)CC2 [Example 267, N-[(1R,3S)-3-(1H-benzimidazol-2-yl)cyclohexyl]-2-(cyclopropyl-methyl)-1,2,3,4-tetrahydroiso-quinoline-7-carboxamide HCl]
50.7	CN1[C@H](C(=O)N[C@@H]2CCC[C@H](c3nc4ccccc4[nH]3)C2)C[C@@H]2CCCC[C@@H]21 [Example 268, (2S,3aS,7aS)-N-[(1R,3S)-3-(1H-benzimidazol-2-yl)cyclohexyl]-1-methyloctahy-dro-1H-indole-2-carboxamide HCl]
107	COc1cc(OC)cc(C(=O)NC23CCCC(c4nc5cc(Cl)ccc5[nH]4)(C2)C3)c1 [Example 269, N-[5-(5-chloro-1H-benzimidazol-2-yl)bicyclo[3.1.1]hept-1-yl]-3,5-dimethoxybenz-amide]
107	N#Cc1ccc(NC(=O)NC23CCCC(c4nc5cc(Cl)ccc5[nH]4)(C2)C3)cc1 [Example 270, 1-[5-(5-chloro-1H-benzimidazol-2-yl)bicyclo[3.1.1]hept-1-yl]-3-(4-cyanophenyl) urea]
84.7	O=C(NC12CCCC(c3nc4cc(Cl)ccc4[nH]3)(C1)C2)c1cc2c(cn1)OCCO2 [Example 271, N-[5-(5-chloro-1H-benzimidazol-2-yl)bicyclo[3.1.1]hept-1-yl]-2,3-dihydro[1,4]di-oxino[2,3-c]pyridine-7-carboxamide]
110	O=C(NC12CCCC(c3nc4cc(Cl)ccc4[nH]3)(C1)C2)c1ccc2c(c1)OCCO2 [Example 272, N-[5-(5-chloro-1H-benzimidazol-2-yl)bicyclo[3.1.1]hept-1-yl]-2,3-dihydro-1,4-benzodioxine-6-carboxamide]
93.2	[N-]=[N+]=Nc1ccc(C(=O)NC23CCCC(c4nc5cc(C(F)(F)F)ccc5[nH]4)(C2)C3)cc1 [Example 273, 4-azido-N-{5-[5-(trifluoromethyl)-1H-benzimidazol-2-yl]bicyclo[3.1.1]hept-1-yl}benzamide]
105	O=C(NC12CCCC(c3nc4cc(C(F)(F)F)ccc4[nH]3)(C1)C2)c1ccc(C(=O)C(F)(F)F)cc1 [Example 274, 4-(trifluoroacetyl)-N-{5-[5-(trifluoromethyl)-1H-benzimidazol-2-yl]bicyclo[3.1.1]hept-1-yl}benzamide]
89	O=C(NC12CCCC(c3nc4cc(C(F)(F)F)ccc4[nH]3)(C1)C2)c1ccc(C(=O)c2ccccc2)cc1 [Example 275, 4-benzoyl-N-{5-[5-(trifluoromethyl)-1H-benzimidazol-2-yl]bicyclo[3.1.1]hept-1-yl}benzamide]
84.7	O=C(NC12CCCC(c3nc4cc(C(F)(F)F)ccc4[nH]3)(C1)C2)c1ccc2c(c1)CCCO2 [Example 276, N-{5-[5-(trifluoromethyl)-1H-benzimidazol-2-yl]bicyclo[3.1.1]hept-1-yl}chromane-6-carboxamide]
